Experimental data taken from PMC10617776, “Bi-steric mTORC1 inhibitors induce apoptotic cell death in tumor models with hyperactivated mTORC1” (The Journal of Clinical Investigation, 2023).

Assays:
855T Tsc1- = tested on: T1, 855T Tsc1-; experiment: cells; set-up: cell proliferation by crystal violet staining, absorbance 540 nm; conditions: 72 h
T1 construct: Tsc1-null

TTJ Tsc2- = tested on: T2, TTJ Tsc2-; experiment: cells; set-up: cell proliferation by crystal violet staining, absorbance 540 nm; conditions: 72 h
T2 construct: Tsc2-null

TTJ Tsc2+ = tested on: T3, TTJ Tsc2+; experiment: cells; set-up: cell proliferation by crystal violet staining, absorbance 540 nm; conditions: 72 h
T3 construct: Tsc2 add-back

97-1 TSC1+ = tested on: T4, 97-1 TSC1+; experiment: cells; set-up: cell proliferation by crystal violet staining, absorbance 540 nm; conditions: 72 h
T4 construct: TSC1 add-back

705 TSC2+ = tested on: T5, 705 TSC2+; experiment: cells; set-up: cell proliferation by crystal violet staining, absorbance 540 nm; conditions: 72 h
T5 construct: TSC2 add-back

mTOR (mTORC1 and mTORC2) = biological target: T6, mTOR (mTORC1 and mTORC2) (Homo sapiens, UniProt P42345); experiment: immunoblot of mTORC1/mTORC2 substrate phosphorylation in cells ([…] h treatment); assay type: cell-based
T6 construct: endogenous mTOR in HCV29 TSC1-null cells

105K Tsc2+ = tested on: T7, 105K Tsc2+; experiment: cells; set-up: cell proliferation by crystal violet staining, absorbance 540 nm; conditions: 72 h
T7 construct: Tsc2 add-back

KTP-267-2B8 Tsc1- = tested on: T8, KTP-267-2B8 Tsc1-; experiment: cells; set-up: cell proliferation by crystal violet staining, absorbance 540 nm; conditions: 72 h
T8 construct: Tsc1-null

97-1 TSC1- = tested on: T9, 97-1 TSC1-; experiment: cells; set-up: cell proliferation by crystal violet staining, absorbance 540 nm; conditions: 72 h
T9 construct: TSC1-null

634T Tsc1- = tested on: T10, 634T Tsc1-; experiment: cells; set-up: cell proliferation by crystal violet staining, absorbance 540 nm; conditions: 72 h
T10 construct: Tsc1-null

KTP-267-1B1 Tsc1- = tested on: T11, KTP-267-1B1 Tsc1-; experiment: cells; set-up: cell proliferation by crystal violet staining, absorbance 540 nm; conditions: 72 h
T11 construct: Tsc1-null
Experimental: (§1) The effect of the compounds on cell proliferation was measured by crystal violet staining. Cells were plated in 96-well plates at a density of 500–2,000 cells (sextuples per condition). The next day, cells were treated with concentrations (0–100 nM) prepared by serial dilution. After 3 days of treatment, cells were fixed by 10% formalin for 10 minutes at room temperature. 0.05% crystal violet solution was added and incubated for 15 minutes at room temperature. Absorbance was read using Synergy HT (BioTek) at 540 nm. The inhibition curves and IC50 values were calculated by GraphPad Prism 9.0. TSC1-null HCV29 (BLCA cell line) and its TSC1–add-back derivative were treated with rapamycin, MLN0128, and bi-steric mTORC1 inhibitors.

SNU886 TSC2+ = tested on: T12, SNU886 TSC2+; experiment: cells; set-up: cell proliferation by crystal violet staining, absorbance 540 nm; conditions: SNU-886, 72 h
T12 construct: TSC2 add-back
Experimental: as §1

HCV29 TSC1- = tested on: T13, HCV29 TSC1-; experiment: cells; set-up: cell proliferation by crystal violet staining, absorbance 540 nm; conditions: HCV-29, 72 h
T13 construct: TSC1-null
Experimental: as §1

HCV29 TSC1+ = tested on: T14, HCV29 TSC1+; experiment: cells; set-up: cell proliferation by crystal violet staining, absorbance 540 nm; conditions: HCV-29, 72 h
T14 construct: TSC1 add-back
Experimental: as §1

705 Tsc2- = tested on: T15, 705 Tsc2-; experiment: cells; set-up: cell proliferation by crystal violet staining, absorbance 540 nm; conditions: 72 h
T15 construct: Tsc2-null

105K Tsc2- = tested on: T16, 105K Tsc2-; experiment: cells; set-up: cell proliferation by crystal violet staining, absorbance 540 nm; conditions: 72 h
T16 construct: Tsc2-null

RT4 TSC1- = tested on: T17, RT4 TSC1-; experiment: cells; set-up: cell proliferation by crystal violet staining, absorbance 540 nm; conditions: 72 h
T17 construct: TSC1-null

857T Tsc1+ = tested on: T18, 857T Tsc1+; experiment: cells; set-up: cell proliferation by crystal violet staining, absorbance 540 nm; conditions: 72 h
T18 construct: Tsc1 wild-type

KTP-269-3C4 Tsc1- = tested on: T19, KTP-269-3C4 Tsc1-; experiment: cells; set-up: cell proliferation by crystal violet staining, absorbance 540 nm; conditions: 72 h
T19 construct: Tsc1-null

CC(C)n1nc(-c2ccc3oc(N)nc3c2)c2c(N)ncnc21 [MLN0128]
IC50 (855T Tsc1-): 31.6 nM | IC50 (TTJ Tsc2-): 63.1 nM | IC50 (TTJ Tsc2+): 50.1 nM | IC50 (97-1 TSC1+): 46.8 nM | IC50 (705 TSC2+): 50.1 nM | immunoblot of mTORC1/mTORC2 substrate phosphorylation in cells (4 h treatment) (mTOR (mTORC1 and mTORC2)): 10 to 30 nM | IC50 (105K Tsc2+): 79.4 nM | IC50 (KTP-267-2B8 Tsc1-): 28.2 nM | IC50 (97-1 TSC1-): 39.8 nM | IC50 (634T Tsc1-): 60.3 nM | IC50 (KTP-267-1B1 Tsc1-): 44.7 nM | IC50 (SNU886 TSC2+): 44.7 nM | IC50 (HCV29 TSC1-): 31.6 nM | IC50 (HCV29 TSC1+): 35.5 nM | IC50 (705 Tsc2-): 50.1 nM | IC50 (105K Tsc2-): 41.7 nM | IC50 (RT4 TSC1-): 63.1 nM | IC50 (857T Tsc1+): 70.8 nM | IC50 (KTP-269-3C4 Tsc1-): 26.9 nM
